# Experimental data reported in patent US20050026949A1, “Methods of therapeutic treatment using amounts of retinoids without regard to body weight” (Allergan, Inc., priority 2003, published 2005).
# Columns and labels:
# RXRs = test: Activation of RXRs; type: cell-based
# RARs = test: Activation of RARs; type: cell-based
# [1] = in vivo; cited from earlier work
# [2] = oral, cited from earlier work; for bioavailability in the presence of food: Colburn et al
# [3] = test system: patients in the studies of acitretin; conditions: published data (N = 525); cited from earlier work
# [4] = cited from earlier work
# sebaceous glands = conditions: published reports (Geiger); cited from earlier work
# [5] = test system: patients in the studies of isotretinoin; conditions: published data (N = 525); cited from earlier work
# [6] = Food effect on pharmacokinetics of tazarotenic acid after oral tazarotene (Example 1); type: in vivo, human; conditions: 6.3 mg oral tazarotene
# Experimental: For the purposes of this application, the bioavailability of a drug may be based on the human pharmokinetic parameters of maximum blood concentration (Cmax) and Area under the blood concentration-time curve (AUC).
# (§1) The LC-MS/MS test for simultaneous detection of tazarotene and tazarotenic acid may be run as follows. One ml of plasma (EDTA-treated) is diluted with 1.0 ml of water. Diluted plasma is extracted using solid phase extraction (SPE) on a C18 cartridge. The eluate is evaporated, reconstituted in a water/methanol-based mobile phase, and injected onto a 4.6×50 mm, 3 μm pore size C-8 reverse phase high pressure liquid chromatography (HPLC) column (Agilent, Wilmington, Del.). Compounds are gradient-eluted at 1.2 mL/min and detected using an API 3000 triple quadrupole mass spectrometer with an Atmospheric Pressure Chemical Ionization (APCI) source (PE-Sciex, Concord, Ontario, Canada). Molecular reaction monitoring enhances the sensitivity and selectivity of this assay by collisionally dissociating the protonated molecules for the analyte and an internal standard thereby forming the product ions. The specific precursor-product ion pair monitored are m/z 352→324 for tazarotene, m/z 359→331 for the tazarotene internal standard, m/z 324→294 for tazarotenic acid, and m/z 331+298 for the tazarotenic acid internal standard. The lower limit of quantitation at assay range tested is 0.1 ng/mL, with a coefficient of variation and deviation from nominal concentration of <15%.
# RAR-A = molecular target: T1, RAR-A (Homo sapiens, UniProt P10276); test: RAR-alpha activity; type: cell-based
# T1 sequence (P10276 1-462): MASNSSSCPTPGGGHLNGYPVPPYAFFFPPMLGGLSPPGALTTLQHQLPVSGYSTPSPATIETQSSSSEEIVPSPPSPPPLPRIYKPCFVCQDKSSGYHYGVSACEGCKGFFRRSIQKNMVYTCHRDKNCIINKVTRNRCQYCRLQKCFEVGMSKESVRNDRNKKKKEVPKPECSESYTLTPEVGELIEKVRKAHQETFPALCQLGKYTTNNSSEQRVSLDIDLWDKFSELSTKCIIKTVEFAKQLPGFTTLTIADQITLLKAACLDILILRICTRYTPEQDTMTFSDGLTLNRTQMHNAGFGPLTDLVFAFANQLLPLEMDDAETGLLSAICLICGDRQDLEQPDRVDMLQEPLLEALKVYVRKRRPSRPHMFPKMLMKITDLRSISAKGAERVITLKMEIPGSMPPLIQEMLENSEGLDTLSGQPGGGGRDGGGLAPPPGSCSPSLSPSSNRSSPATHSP
# [7] = Body weight effect on plasma tazarotenic acid Cmax and AUC (Example 7); type: in vivo, human; conditions: 6 mg tazarotene daily, day 9
# Experimental: as §1, with “<15%. […]” for “<15%.”
# [8] = topical administration of tazarotene; cited from earlier work
smiles,measurement,setting,value
CC1(C)CC[S+]([O-])c2ccc(C#Cc3ccc(C(=O)O)cn3)cc21 (stereo not drawn) [AGN 190844],activation of RXRs,RXRs,does not activate
same,activation of RARs,RARs,does not activate
"COc1cc(C)c(/C=C/C(C)=C/C=C/C(C)=C/C(=O)O)c(C)c1C [Acitretin, acitretin]",bioavailability in relation to body weight,[1],increased with a reduced body weight
same,bioavailability in the presence of food,[2],bioavailability is increased in the presence of food
same,Alopecia,[3],319 (60.8) NUMBER OF (%) OF PATIENTS
same,Arthralgia,[3],102 (19.4) NUMBER OF (%) OF PATIENTS
same,Atrophy of skin,[3],64 (12.2) NUMBER OF (%) OF PATIENTS
same,Back pain,[3],41 (7.8) NUMBER OF (%) OF PATIENTS
same,Cheilitis,[3],429 (81.7) NUMBER OF (%) OF PATIENTS
same,Dry Skin,[3],174 (33.1) NUMBER OF (%) OF PATIENTS
same,Dry mouth/Oral dryness,[3],76 (14.5) NUMBER OF (%) OF PATIENTS
same,Epistaxis,[3],61 (11.6) NUMBER OF (%) OF PATIENTS
same,Erythematous rash/Erythema,[3],57 (10.9) NUMBER OF (%) OF PATIENTS
same,Hyperesthesia,[3],66 (12.6) NUMBER OF (%) OF PATIENTS
same,Nail Disorder,[3],170 (32.4) NUMBER OF (%) OF PATIENTS
same,Paresthesia,[3],56 (10.7) NUMBER OF (%) OF PATIENTS
same,Paronychia/Nail disorder,[3],66 (12.6) NUMBER OF (%) OF PATIENTS
same,Pruritus,[3],157 (29.9) NUMBER OF (%) OF PATIENTS
same,Rhinitis,[3],153 (29.1) NUMBER OF (%) OF PATIENTS
same,Rigors/Chills,[3],67 (12.8) NUMBER OF (%) OF PATIENTS
same,Skin peeling/Desquamation,[3],345 (65.7) NUMBER OF (%) OF PATIENTS
same,Sticky skin/Skin disorder,[3],129 (24.6) NUMBER OF (%) OF PATIENTS
same,Xerophthalmia/Eye disorder,[3],112 (21.3) NUMBER OF (%) OF PATIENTS
same,effect on contraceptive effect of microdosed progestin preparations,[4]; in vivo,interferes with the contraceptive effect
"CC1=C(/C=C/C(C)=C/C=C/C(C)=C\C(=O)O)C(C)(C)CCC1 [Isotretinoin, isotretinoin]",decrease in sebum secretion rate,sebaceous glands,about 90%
same,bioavailability in relation to body weight,[1],increased with a reduced body weight
same,bioavailability in the presence of food,[2],bioavailability is increased in the presence of food
same,total dose needed to reach the same peak blood concentration in the fasted state as following a high fat meal,[2],more than doubled
same,effect on blood concentrations of coadministered contraceptive components,[4]; coadministered contraceptive tablets,decreases blood concentrations of both ethinyl estradiol and norethindrone
same,Cheilitis,[5],472 (90.2) NUMBER OF (%) OF PATIENTS
same,Conjunctivitis,[5],201 (38.4) NUMBER OF (%) OF PATIENTS
same,Desquamation central face/Desquamation,[5],187 (35.8) NUMBER OF (%) OF PATIENTS
same,Dry Skin,[5],172 (32.9) NUMBER OF (%) OF PATIENTS
same,Dry nose,[5],136 (26.0) NUMBER OF (%) OF PATIENTS
same,Epistaxis,[5],121 (23.1) NUMBER OF (%) OF PATIENTS
same,Fingertip peeling/Desquamation,[5],63 (12.0) NUMBER OF (%) OF PATIENTS
same,Headache,[5],44 (8.4) NUMBER OF (%) OF PATIENTS
same,Irritation of eyes,[5],85 (16.3) NUMBER OF (%) OF PATIENTS
same,Pruritus,[5],127 (24.3) NUMBER OF (%) OF PATIENTS
same,Red Scaly face/Desquamation,[5],54 (10.3) NUMBER OF (%) OF PATIENTS
same,Skin fragility/Skin disorder,[5],164 (31.4) NUMBER OF (%) OF PATIENTS
C=C(c1ccc(C(=O)O)cc1)c1cc2c(cc1C)C(C)(C)CCC2(C)C [bexarotene],bioavailability in the presence of food,[2],bioavailability is increased in the presence of food
same,effect on plasma concentration of coadministered tamoxifen,[4]; coadministration with tamoxifen,reduced plasma concentration of tamoxifen
CCOC(=O)/C=C(C)/C=C/C=C(C)/C=C/c1c(C)cc(OC)c(C)c1C [etretinate],bioavailability in relation to body weight,[1],increased with a reduced body weight
CC1(C)CCSc2ccc(C#Cc3ccc(C(=O)O)cn3)cc21 [tazarotenic acid],90% CI ratio of Cmax values,[6]; fed vs fasted,partially outside the 80-125% boundary
same,90% confidence intervals of AUC ratios (test/reference),[6]; fed vs fasted,completely within the 80-125% boundary
same,average ratio of Cmax (test/reference),"[6]; fed vs fasted, Day 0",1.00
same,average ratio of Cmax (test/reference),"[6]; fed vs fasted, Day 9",0.829
same,effect of high-fat meal on bioavailability or pharmacokinetics of tazarotenic acid,"[6]; within 30 minutes after high fat breakfast vs after 8-10 hour fast, single and multiple dose, healthy subjects",does not substantially affect
same,activation of RXRs,RXRs,does not activate
same,receptor specificity and selectivity,RARs,specificity for the RARs and selectivity for RAR-β and RAR-γ
same,RAR-A activity,RAR-A,minimal
same,correlation of Cmax or AUC with body weight,[7],no correlation between either Cmax or AUC and body weight
same,maximum blood concentration of tazarotenic acid,[8],less than 30 ng/ml
